Data as given in paper PMC7156458, “Synthetic biology based construction of biological activity-related library of fungal decalin-containing diterpenoid pyrones” (Nature Communications, 2020).
Several values for one entry are separate records, joined by “and”; a condition that tells them apart may be missing. Identical values can stand only once. Like-named read-outs stand apart in the source and are kept apart here.

Key:
MCF-7 cells = experiment: cell cytotoxic effects against MCF-7 cells (72 h), A490; type: cell-based, human; conditions: for viability at 0.1 µM / viability at 1 µM / viability at 10 µM: Homo sapiens, MCF7, 72 h, read-out: A490 (control =1) ave
Method: !" ' ' '! !" ' ' '! !" ' ' '!!" ' ' '!!" ' ' '!!" ' ' '!!" ' ' '!!" ' ' '! !" ' ' '! !" ' ' '! !" ' ' '! !"#$
( % ) * '! '' '# '+ '$ '( '%
! " # $ %& %% %' %( %) %! %"
!" ' ' '! !" ' ' '!!" ' ' '!!" ' ' '!!" ' ' '!!" ' ' '!!" ' ' '! !" ' ' '! !" ' ' '! !" ' ' '! !" ' ' '! […]
Supplementary Fig. 46. a, Cell cytotoxic effects of DDPs against MCF-7 cells (72 h).
dose dependent cytotoxic effects against MCF-7 cells were tested their inhibitory activity against mammosphere
formation. Compound in blue (16) was also performed mammosphere assay as negative control. Data represent
mean±s.d. from three independent replicate experiments. […]
Source data underlying Supplementary Figure 46a are provided in a Source Data file. […]

MAGI cells = experiment: cytotoxicity in the anti-HIV assay (CC50); type: cell-based; conditions: for Cytotoxicity Avg.: average of numeric determinations; for Cytotoxicity: single determinations
Text: We examined the inhibitory activities of DDPs against various species of bacteria (both gram-negative and gram-positive bacteria), fungi and viruses. […] In contrast, preliminary screening of the DDPs for anti-viral agents with hepatitis B virus (HBV), measles virus (MV), Epstein-Barr virus (EBV), herpes simplex virus (HSV) and human immunodeficiency virus-1 (HIV-1) indicated their selective inhibition of HIV.
Policy information about cell lines […]
HeLa-CD4-LTR/ !-galactosidase (MAGI) cells provided by Dr. J. Overbaugh through the NIH AIDS Research and Reference […]
MAGI cells were authenticated by the NIH.
Mycoplasma contamination All the cell lines tested negative for mycoplasma contamination.
Commonly misidentified lines No commonly mis-identified cell lines. […]

[1] = MCF-7, 72 h, 0.1 µM (DMSO 0.002%)
[2] = MCF-7, 72 h, 0.1 µM (DMSO 0.002%), control 1.064
[3] = MCF-7, 72 h, 1 µM (DMSO 0.02%), control 1.104
[4] = MCF-7, 72 h, 10 µM (DMSO 0.2%), control 1.049

**Q.** What does the source list for C=C1CCC2C(C)(CC(=O)C=C(C)C)C(O)CCC2(C)C1Cc1c(OC)oc(CO)c(C)c1=O (centres unmarked) [Compound 19]?
**A.** viability at 0.1 µM (MCF-7 cells; [1]): 65%; viability at 1 µM (MCF-7 cells; MCF-7, 72 h, 1 µM (DMSO 0.02%)): 110%; viability at 10 µM (MCF-7 cells; MCF-7, 72 h, 10 µM (DMSO 0.2%)): 104%; A490 ave (MCF-7 cells; [2]): 0.691; A490 ave (MCF-7 cells; [3]): 1.209; A490 ave (MCF-7 cells; [4]): 1.093; Cytotoxicity Avg. (MAGI cells): 6.013 µM; Cytotoxicity (MAGI cells): 6.158 µM and 7.239 µM and 4.642 µM

**Q.** What does the source list for C=C1CC[C@@H]2[C@](C)(CC[C@H]3O[C@H](C=C(C)C)C[C@@]23C)[C@@H]1Cc1c(OC)oc(CO)c(C(=O)OC)c1=O [Compound 21]?
**A.** viability at 0.1 µM (MCF-7 cells; [1]): 114%; viability at 1 µM (MCF-7 cells; MCF-7, 72 h, 1 µM (DMSO 0.02%)): 118%; viability at 10 µM (MCF-7 cells; MCF-7, 72 h, 10 µM (DMSO 0.2%)): 103%; A490 ave (MCF-7 cells; [2]): 1.213; A490 ave (MCF-7 cells; [3]): 1.298; A490 ave (MCF-7 cells; [4]): 1.083

**Q.** C=C1CCC2C(C)(CCC=C(C)C)C(O)CCC2(C)C1Cc1c(OC)oc(C)c(C)c1=O (centres unmarked) [Compound 15, viridoxin A hydrolysate] was tested. Which viability at 0.1 µM (MCF-7 cells) did it give?
**A.** 82%

**Q.** And the viability at 1 µM (MCF-7 cells)?
**A.** 121%

**Q.** What about the viability at 10 µM (MCF-7 cells) of the same molecule?
**A.** 61.8%

**Q.** What about the A490 ave (MCF-7 cells; [2]) of the same molecule?
**A.** 0.873

**Q.** And the A490 ave (MCF-7 cells; [3])?
**A.** 1.333

**Q.** And the A490 ave (MCF-7 cells; [4])?
**A.** 0.649

**Q.** What about the Cytotoxicity (MAGI cells) of the same molecule?
**A.** >10 µM

**Q.** What does the source list for C=C1CC[C@@H]2[C@](C)(CC[C@H]3O[C@H](C=C(C)C)C[C@@]23C)[C@@H]1Cc1c(O)c(C)c(C)oc1=O [Compound 10, higginsianin A]?
**A.** viability at 0.1 µM (MCF-7 cells; [1]): 62.9%; viability at 1 µM (MCF-7 cells; MCF-7, 72 h, 1 µM (DMSO 0.02%)): 94.3%; viability at 10 µM (MCF-7 cells; MCF-7, 72 h, 10 µM (DMSO 0.2%)): 17.9%; A490 ave (MCF-7 cells; [2]): 0.669; A490 ave (MCF-7 cells; [3]): 1.042; A490 ave (MCF-7 cells; [4]): 0.188; Cytotoxicity (MAGI cells): >10 µM

**Q.** For C=C1CCC2C(C)(CCC=C(C)C)C(O)CCC2(C)C1Cc1c(OC)oc(CO)c(C(=O)OC)c1=O (centres unmarked) [Compound 13], which viability at 0.1 µM (MCF-7 cells; [1]) is on record?
**A.** 89.1%

**Q.** What about the viability at 1 µM (MCF-7 cells; MCF-7, 72 h, 1 µM (DMSO 0.02%)) of the same molecule?
**A.** 106%

**Q.** And the viability at 10 µM (MCF-7 cells; MCF-7, 72 h, 10 µM (DMSO 0.2%))?
**A.** 98.6%

**Q.** And the A490 ave (MCF-7 cells; [2])?
**A.** 0.948

**Q.** And the A490 ave (MCF-7 cells; [3])?
**A.** 1.176

**Q.** And the A490 ave (MCF-7 cells; [4])?
**A.** 1.034

**Q.** What about the Cytotoxicity (MAGI cells) of the same molecule?
**A.** >10 µM

**Q.** Which “cytotoxicity against the bulk of MCF-7 cells” value (“cytotoxicity against the bulk” below) (MCF-7 cells) does the source give for C=C1CC[C@@H]2[C@](C)(CC[C@H]3O[C@H](C=C(C)C)C[C@@]23C)[C@@H]1Cc1c(OC)oc(C)c(C)c1=O [Compound 22, O-methylated higginsianin A] here?
**A.** dose-dependent cytotoxicity

**Q.** And the viability at 0.1 µM (MCF-7 cells; [1])?
**A.** 81.4%

**Q.** And the viability at 1 µM (MCF-7 cells; MCF-7, 72 h, 1 µM (DMSO 0.02%))?
**A.** 48%

**Q.** What about the viability at 10 µM (MCF-7 cells; MCF-7, 72 h, 10 µM (DMSO 0.2%)) of the same molecule?
**A.** 30.1%

**Q.** What about the A490 ave (MCF-7 cells; [2]) of the same molecule?
**A.** 0.866

**Q.** What about the A490 ave (MCF-7 cells; [3]) of the same molecule?
**A.** 0.530

**Q.** And the A490 ave (MCF-7 cells; [4])?
**A.** 0.316

**Q.** What about the “Cytotoxicity Avg.” value (MAGI cells) of the same molecule?
**A.** 5.079 µM

**Q.** And the Cytotoxicity (MAGI cells)?
**A.** 5.68 µM and 5.915 µM and 3.643 µM

**Q.** With C=C1CCC2C(C)(CCC=C(C)C)C(O)CCC2(C)C1Cc1c(O)c(C)c(C)oc1=O (centres unmarked) [Compound 9, higginsianin B] as the molecule, how does the viability at 0.1 µM (MCF-7 cells; [1]) read?
**A.** 53.1%

**Q.** And the viability at 1 µM (MCF-7 cells; MCF-7, 72 h, 1 µM (DMSO 0.02%))?
**A.** 95.5%

**Q.** What about the viability at 10 µM (MCF-7 cells; MCF-7, 72 h, 10 µM (DMSO 0.2%)) of the same molecule?
**A.** 27.3%

**Q.** And the A490 ave (MCF-7 cells; [2])?
**A.** 0.565

**Q.** What about the A490 ave (MCF-7 cells; [3]) of the same molecule?
**A.** 1.055

**Q.** And the A490 ave (MCF-7 cells; [4])?
**A.** 0.286

**Q.** C=C1CCC2C(C)(CCC=C(C)C)C(O)CCC2(C)C1Cc1c(OC)oc(CO)c(C)c1=O (centres unmarked) [Compound 12] was tested. Which “cytotoxicity against the bulk” value (MCF-7 cells) did it give?
**A.** dose-dependent cytotoxicity

**Q.** What about the viability at 0.1 µM (MCF-7 cells; [1]) of the same molecule?
**A.** 72.1%

**Q.** And the A490 ave (MCF-7 cells; [2])?
**A.** 0.767

**Q.** What about the A490 ave (MCF-7 cells; [3]) of the same molecule?
**A.** 0.265

**Q.** What about the A490 ave (MCF-7 cells; [4]) of the same molecule?
**A.** 0.189

**Q.** For C=C1CCC2C(C)(CCC=C(C)C)C(O)CCC2(C)C1Cc1c(OC)oc(C)c(C)c1=O (centres unmarked) [Compound 11], which “cytotoxicity against the bulk” value (MCF-7 cells) is on record?
**A.** dose-dependent cytotoxicity

**Q.** What about the viability at 0.1 µM (MCF-7 cells; [1]) of the same molecule?
**A.** 92.2%

**Q.** And the viability at 1 µM (MCF-7 cells; MCF-7, 72 h, 1 µM (DMSO 0.02%))?
**A.** 34.3%

**Q.** And the viability at 10 µM (MCF-7 cells; MCF-7, 72 h, 10 µM (DMSO 0.2%))?
**A.** 21.4%

**Q.** And the A490 ave (MCF-7 cells; [2])?
**A.** 0.981

**Q.** And the A490 ave (MCF-7 cells; [3])?
**A.** 0.379

**Q.** What about the A490 ave (MCF-7 cells; [4]) of the same molecule?
**A.** 0.224

**Q.** For CC(C)=CCC/C(C)=C/CC/C(C)=C/CC/C(C)=C/Cc1c(O)c(C)c(C)oc1=O [Compound 2], which Cytotoxicity (MAGI cells) is on record?
**A.** >10 µM

**Q.** What does the source list for C=C1CC[C@H]2[C@]3(C)C[C@@H](C=C(C)C)O[C@H]3CC[C@]2(C)[C@@H]1Cc1c(O)c(C)c(C)oc1=O [Compound 5, subglutinol A]?
**A.** cytotoxicity against the bulk of MCF-7 cells (MCF-7 cells): dose-dependent cytotoxicity; viability at 0.1 µM (MCF-7 cells; [1]): 45.9%; viability at 1 µM (MCF-7 cells; MCF-7, 72 h, 1 µM (DMSO 0.02%)): 45.5%; viability at 10 µM (MCF-7 cells; MCF-7, 72 h, 10 µM (DMSO 0.2%)): 8.4%; A490 ave (MCF-7 cells; [2]): 0.489; A490 ave (MCF-7 cells; [3]): 0.503; A490 ave (MCF-7 cells; [4]): 0.088; Cytotoxicity (MAGI cells): >10 µM
